{"source": "patent US20130065227A1", "about": "“METHODS OF INCREASING MACROPINOCYTOSIS IN CANCER CELLS” (priority 2010, published 2013)", "type_in_all_cases": "cell-based", "key": {"[1]": {"tested_on": "A549", "assay": "Uptake of AS1411 by macropinocytosis (MP)", "details": "Cancer, non-small cell lung", "text": "(§1) It has recently been discovered that AS1411 can stimulate macropinocytosis (MP) in cancer cells and this finding was verified by several different methods and in multiple cancer cell lines (Table 1)."}, "[2]": {"tested_on": "BEAS2B", "assay": "Uptake of AS1411 by macropinocytosis (MP)", "details": "Non-cancer, lung epithelial", "text": "as §1"}, "[3]": {"tested_on": "CHO", "assay": "Uptake of AS1411 by macropinocytosis (MP)", "details": "Non-cancer, hamster ovary", "text": "as §1"}, "[4]": {"tested_on": "RCC4", "assay": "Uptake of AS1411 by macropinocytosis (MP)", "details": "Cancer, renal cell", "text": "as §1"}, "[5]": {"tested_on": "RWPE1", "assay": "Uptake of AS1411 by macropinocytosis (MP)", "details": "Non-cancer, prostate epithelial", "text": "as §1"}, "[6]": {"tested_on": "DU145", "assay": "Uptake of AS1411 by macropinocytosis (MP)", "details": "DU145; Cancer, prostate", "protocol": "FIG. 2 are graphs showing that AS1411 is internalized by different endocytic mechanisms in DU145 cancer cells and in non-malignant Hs27 cells. DU145 or Hs27 cells were plated 18 h before uptake analysis. Cells were pre-treated as described with inhibitor (gray histogram) or the corresponding vehicle control (black histogram) before addition of 10 μM FL-AS1411 and incubation at 37° C. for 2 h. After incubation, cells were harvested and analyzed by flow cytometry. Pre-treatment conditions were at 37° C. with: (Panel A) 5 μM Cytochalasin D for 30 min; (Panel B) 80 μM Dynasore for 30 min; or (Panel C) 3 mM amiloride for 1 h. All experiments were repeated at least three times and representative data are shown. Solid gray histograms represent background autofluorescence of unstained cells.\nTo analyze uptake of the oligodeoxynucleotides or dextran-10K (macropinocytic marker) by flow cytometry, 2×10^5 cells in fresh supplemented culture medium (2.5 ml) were plated into 6-well plates for 18 h. After complete adhesion, the cells were incubated with 5′-FAM tagged oligodeoxynucleotides or Alexa Fluor 488 tagged dextran-10K and incubated as indicated in the Description of the Drawings. Cells were washed once with ice-cold PBS, incubated with 1 μg/ml 7-amino-actinomycin D (7-AAD) for 5 min on ice or 1 μg/ml propidium iodide (PI), and washed twice with ice-cold PBS. […]"}, "[7]": {"tested_on": "cancer cells", "assay": "Stimulation of macropinocytosis / induced uptake", "text": "A number of additional G-rich oligonucleotides were obtained and used to evaluate whether or not macropinocytosis was increased in cancer cells using the methodology described herein. For example, the following sequences were used:\nIn addition, the G-rich oligonucleotides disclosed in Dapic et al. (2003, Nuc. Acids Res.,31:2097 -107; KS-A though KS-I) and the G-rich oligonucleotides (e.g., telomere homologs, GT oligonucleotides, Stat3 binders, Dz13, and triplex oligonucleotides with aptameric effects) disclosed in Bates et al. (2009, Exp. Mol. Path., 86:151-64) and references therein are shown to stimulate macropinocytosis in cancer cells.\nFurthermore, due to the unique properties of MPsomes, delivery by MP leads to increased functional activity. Thus, treatment with AS1411, followed by administration of an anticancer siRNA, for example, leads to a synergistic increase in anticancer effects without harming normal cells. Another strategy to potentiate the effects of AS1411 is to combine it with agents that promote MP and activation of Rac. This leads to increased macropinocytic uptake of AS1411 and/or enhanced methuosis."}}, "data": [{"substance": "5′-d(GGTGGTGGTGGTTGTGGTGGTGGTGG) [AS1411]", "values": [{"measurement": "Update by MP?", "setting": "[1]", "result": "Yes"}, {"measurement": "Update by MP?", "setting": "[2]", "result": "Low"}, {"measurement": "Update by MP?", "setting": "[3]", "result": "No"}, {"measurement": "Update by MP?", "setting": "[4]", "result": "Yes"}, {"measurement": "Update by MP?", "setting": "[5]", "result": "No"}, {"measurement": "Update by MP?", "setting": "[6]", "result": "Yes"}, {"measurement": "induced uptake from the culture medium after pre-treatment", "setting": "[7]", "result": "induced uptake of dextran, AS1411, or transferrin (by MP)"}]}]}
